Consider two molecules from publication PMC12440207 (PLOS Pathogens, 2025).

Assay [1] concerns water injected oocytes (endogenous channels of Xenopus laevis). Nature of the assay: Electrophysiology of water injected oocytes (control). In kind it is cell-based. As for the experimental part:
(§1) TEVC was conducted at room temperature by impaling oocytes with two microelectrodes; a current injecting electrode, Im, used to inject the required current for holding the membrane at a set voltage, and a voltage sensing electrode, Vm. The microelectrodes were pulled using a Flaming/Brown horizontal electrode puller (Model P-97; Sutter Instruments, Novato, CA, USA) and filled with 3 M KCl. Each electrode tip was broken with a piece of Kimwipe paper (Kimtech Science, Fisher) to achieve a resistance of 2 – 5 MΏ in recording solution (88 mM NaCl, 2.5 mM KCl, 1 mM MgCl2.6H2O, 1.8 mM CaCl2.2H2O and 5 mM HEPES, at pH 7.4). […] Amplified signals were converted from analog to digital format by a Digidata 1322A digitizer (Molecular Devices, CA, USA) and all data were acquired on a desktop computer with the Clampex 10.3 data acquisition software (Molecular Devices, Sunnyvale, CA, USA).
(§2) Briefly, oocytes expressing either Bma-SLO-1F or Ovo-SLO-1A channels were impaled and subjected to a current-voltage protocol that consisted of 500 ms voltage steps from -120 to + 60 mV in 20 mV increments, starting from a holding position of -70 mV for 1 s between each step. Plateau currents were recorded at a frequency of 5000 Hz during clamping and perfused with recording solution: (88 mM NaCl, 2.5 mM, KCl, 1 mM MgCl2.6H2O, 1.8 mM CaCl2.2H2O and 5 mM HEPES, at pH 7.4). The results of the voltage steps were evaluated and analyzed using the ClampFit 10.3 software (Molecular Devices), whereas current-voltage curves (IVCs) were prepared using Graphpad Prism 10.1.1(GraphPad Software, Inc., USA).
(§3) To obtain current-voltage curves (IVCs) from our voltage steps experiments, plateau currents elicited at each step potential (-120 to + 60 mV) were acquired for individual oocytes in Clampfit 10.3 (Molecular Devices, Sunnyvale, CA, USA). […] Subsequently, statistical differences for slope values among treatment groups were analyzed using ANOVA, followed by the Tukey multiple comparison post-hoc test. Results were expressed as mean ± S.E.M.

In assay [2] the target is T1, Bma-SLO-1F (Brugia malayi, UniProt A0A0J9Y9H3). In words: Two-electrode voltage clamp of Xenopus oocytes expressing Bma-SLO-1F. In kind it is cell-based. As for the experimental part:
(§4) Defolliculated Xenopus laevis oocytes were purchased from Ecocyte Bioscience (Austin, TX, USA) and Xenopus 1 Corp (Dexter, MI, USA). Heterologous expression of the Bma-SLO-1F receptor was achieved by injecting 15 ng of cRNA in a total volume of 50 nL in nuclease-free water. Each oocyte was microinjected into the cytoplasm of the animal pole region using a Drummond Nanoject II microinjector (Drummond Scientific, Broomall, PA, USA). After injection, oocytes were incubated at 17°C in a sterile 96-well culture plate containing 300 μl of incubation solution (100 mM NaCl, 2 mM KCl, 1.8 mM CaCl2.2H2O, 1 mM MgCl2.6H2O, 5 mM HEPES, 2.5 mM Na pyruvate, 100 U/mL penicillin and 100 μg/mL streptomycin, pH 7.5) in each well. Incubation solution was changed daily during the period of incubation. The same procedure was also conducted for the Ovo-SLO-1A receptor. Experiments were performed on oocytes within 5 – 6 days post injection.
as §1
(§5) For our recordings, the times for drug applications were selected to allow the currents recorded to reach a stable plateau. At the beginning of experiments the Xenopus oocytes were perfused with drug free recording solution for 1 min, to obtain stable initial resting currents. […] Washing of the Xenopus oocytes then followed for 3 mins.
(§6) GraphPad Prism 10.1.1 software (GraphPad Software Inc., USA) was used to generate Concentration-response curves using the log agonist vs. response equation (variable slope) to estimate EC50, Rmax and Hillslope (nH) values for both Bma-SLO-1F and Ovo-SLO-1A channels. We also used the unpaired two-tailed Student’s t-test to test for statistical significance. A p value < 0.05 was deemed significant. The analyzed results were expressed as mean ± S.E.M.
(§7) The results were expressed as the mean ± S.E.M.
(§8) Results were expressed as the mean ± S.E.M.

Another assay relates to mammalian BK channel. Details: method as in PMID 24561672. The settings on record: mammalian BK channel activator; cited from earlier work.
Assay [3] deals with T2, Ovo-SLO-1A (Onchocerca volvulus, UniProt A0A2K6W0E9). In words: Two-electrode voltage clamp of Xenopus oocytes expressing Ovo-SLO-1A. In kind it is cell-based. How it is done: as §4, §1, §5, §6, §7, §8
T2 sequence (A0A2K6W0E9 entry or part of it): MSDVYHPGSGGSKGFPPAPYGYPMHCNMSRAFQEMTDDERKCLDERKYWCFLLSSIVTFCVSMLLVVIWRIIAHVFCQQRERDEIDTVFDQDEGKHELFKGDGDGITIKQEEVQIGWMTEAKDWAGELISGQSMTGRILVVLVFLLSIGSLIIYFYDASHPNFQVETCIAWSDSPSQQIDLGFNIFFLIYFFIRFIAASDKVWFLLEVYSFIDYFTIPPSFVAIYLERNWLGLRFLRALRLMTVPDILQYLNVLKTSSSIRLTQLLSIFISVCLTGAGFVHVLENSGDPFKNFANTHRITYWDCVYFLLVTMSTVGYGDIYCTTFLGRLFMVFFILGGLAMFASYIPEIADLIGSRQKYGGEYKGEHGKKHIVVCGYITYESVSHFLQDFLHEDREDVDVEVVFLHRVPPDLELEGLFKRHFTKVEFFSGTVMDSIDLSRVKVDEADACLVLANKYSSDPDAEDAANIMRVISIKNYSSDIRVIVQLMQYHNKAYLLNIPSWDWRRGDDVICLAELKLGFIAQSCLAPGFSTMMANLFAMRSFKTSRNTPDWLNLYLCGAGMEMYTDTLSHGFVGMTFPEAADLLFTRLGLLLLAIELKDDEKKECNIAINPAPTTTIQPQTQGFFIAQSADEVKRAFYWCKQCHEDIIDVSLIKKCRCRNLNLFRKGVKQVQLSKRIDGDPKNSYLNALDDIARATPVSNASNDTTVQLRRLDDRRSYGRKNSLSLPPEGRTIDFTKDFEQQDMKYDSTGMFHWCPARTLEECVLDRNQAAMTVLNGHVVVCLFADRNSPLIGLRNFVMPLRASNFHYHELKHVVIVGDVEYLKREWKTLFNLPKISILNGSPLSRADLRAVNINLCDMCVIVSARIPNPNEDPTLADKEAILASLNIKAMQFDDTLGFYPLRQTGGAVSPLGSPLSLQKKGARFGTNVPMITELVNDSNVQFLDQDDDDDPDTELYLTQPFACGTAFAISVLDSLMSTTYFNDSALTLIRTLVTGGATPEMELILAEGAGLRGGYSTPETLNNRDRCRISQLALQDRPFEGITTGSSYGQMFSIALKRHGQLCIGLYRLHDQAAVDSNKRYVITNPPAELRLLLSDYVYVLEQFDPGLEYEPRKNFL
Background: Two-electrode voltage clamp holds a large cell at a set potential and records current.

Assay [4] addresses T2, Ovo-SLO-1A. In words: Voltage step electrophysiology (current-voltage relationship), Ovo-SLO-1A oocytes. In kind it is cell-based. To be noted: 1 µM emodepside. As for the experimental part:
as §2
as §3, with “USA). Mean currents for all replicate oocytes were plotted against their corresponding voltage step potentials to obtain IVCs using Graphpad Prism 10.1.1 software (GraphPad Software, Inc., USA).” for “USA).”

For assay [5], the target named is T1, Bma-SLO-1F. In words: Voltage step electrophysiology (current-voltage relationship), Bma-SLO-1F oocytes. In kind it is cell-based. How it is done: as §2
as §3, with “USA). Mean currents for all replicate oocytes were plotted against their corresponding voltage step potentials to obtain IVCs using Graphpad Prism 10.1.1 software (GraphPad Software, Inc., USA).” for “USA).”

The mark [6] stands for this setting: 3 µM GoSlo-SR-5-69 + 0.3 µM emodepside, Ca2+ replaced with equimolar Co2+.
Setting [7] is: 3 µM GoSlo-SR-5-69 alone, +20 mV.
Where [8] appears, read: 3 µM GoSlo-SR-5-69 on 0.3 µM emodepside response.
Setting [9] is: 0.3 µM emodepside + 3 µM GoSlo-SR-5-69 co-applied, n = 6.
The mark [10] stands for this setting: absence of GoSlo-SR-5-69, modulation experiment, n = 6.
The mark [11] stands for this setting: emodepside alone, +20 mV, n = 10.
Where [12] appears, read: emodepside concentration-response, n = 10.
[13] abbreviates: in the presence of 3 µM GoSlo-SR-5-69, n = 6.

The term EC50 denotes the concentration giving half of the maximal effect.

Entries after “also recorded” stand apart in the source; their conditions may differ.

T1 sequence (A0A0J9Y9H3 entry or part of it): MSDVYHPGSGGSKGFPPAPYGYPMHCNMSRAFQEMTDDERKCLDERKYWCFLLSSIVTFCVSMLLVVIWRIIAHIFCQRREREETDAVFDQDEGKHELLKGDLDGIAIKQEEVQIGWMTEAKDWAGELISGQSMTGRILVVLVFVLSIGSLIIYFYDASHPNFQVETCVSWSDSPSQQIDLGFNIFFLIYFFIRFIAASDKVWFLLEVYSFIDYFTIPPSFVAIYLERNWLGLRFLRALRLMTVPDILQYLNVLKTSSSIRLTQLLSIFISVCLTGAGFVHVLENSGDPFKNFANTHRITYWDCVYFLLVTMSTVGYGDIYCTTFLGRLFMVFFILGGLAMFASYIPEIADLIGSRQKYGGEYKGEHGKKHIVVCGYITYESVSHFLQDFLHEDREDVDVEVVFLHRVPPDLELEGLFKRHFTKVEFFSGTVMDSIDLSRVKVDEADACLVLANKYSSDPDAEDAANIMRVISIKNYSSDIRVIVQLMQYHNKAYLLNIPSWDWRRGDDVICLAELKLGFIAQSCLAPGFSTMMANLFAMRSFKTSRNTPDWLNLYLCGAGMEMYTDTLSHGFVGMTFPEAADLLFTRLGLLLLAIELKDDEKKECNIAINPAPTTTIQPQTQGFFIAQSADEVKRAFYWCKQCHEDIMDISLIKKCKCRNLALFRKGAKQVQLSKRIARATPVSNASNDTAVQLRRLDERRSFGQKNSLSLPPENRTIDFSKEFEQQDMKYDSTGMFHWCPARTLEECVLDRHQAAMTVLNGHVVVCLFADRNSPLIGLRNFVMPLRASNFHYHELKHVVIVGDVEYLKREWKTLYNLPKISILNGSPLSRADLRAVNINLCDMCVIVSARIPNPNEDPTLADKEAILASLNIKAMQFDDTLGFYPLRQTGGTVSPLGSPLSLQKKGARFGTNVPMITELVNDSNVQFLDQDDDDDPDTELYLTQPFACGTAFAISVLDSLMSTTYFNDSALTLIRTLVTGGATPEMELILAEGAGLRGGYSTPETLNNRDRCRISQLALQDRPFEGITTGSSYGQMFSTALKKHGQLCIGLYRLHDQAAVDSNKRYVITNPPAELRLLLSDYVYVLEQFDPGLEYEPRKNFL

`Nc1c(S(=O)(=O)O)cc(Nc2ccc3c(c2)CCCC3)c2c1C(=O)c1ccccc1C2=O` [GoSlo-SR-5–69]: in assay [1] (3 µM GoSlo-SR-5-69, +20 mV, also seen in SLO-1 expressing oocytes), the “current produced in water injected oocytes” value was “slowly inactivating inward current”. Further, the “increase in emodepside Rmax” value at Bma-SLO-1F [2] (3 µM GoSlo-SR-5-69) amounted to 1.7 fold. Further, at Bma-SLO-1F [2] (3 µM GoSlo-SR-5-69), the “increase in sensitivity to emodepside (EC50 shift)” value was 7 fold. Moreover, the “potentiation of emodepside responses in the absence of extracellular Ca2+” value at Bma-SLO-1F [2] (setting [6]) and at Ovo-SLO-1A [3] (setting [6]) was “still potentiated” each time. The “agonist activity (channel activation) alone” value at Bma-SLO-1F [2] (setting [7]) and on Ovo-SLO-1A [3] (setting [7]) was “lacks agonist activity; also recorded: does not by itself activate” each time. For the same molecule, the “percentage increase in peak currents of the emodepside response” value stood at 200% at Bma-SLO-1F [2] (setting [8]) and 65.2% at Ovo-SLO-1A [3] (setting [8]). In addition, the concentration for a half-maximal effect (EC50) in the assay with mammalian BK channel was 251 nM. Moreover, the “change in emodepside Rmax” value on Ovo-SLO-1A [3] (3 µM GoSlo-SR-5-69) is “significantly increased”. Besides, on Ovo-SLO-1A [3] (3 µM GoSlo-SR-5-69), the “shift in emodepside EC50” value is listed as “did not cause a significant shift; also recorded: remained unchanged”.

Turning to emodepside, the reversal potential was -71 mV on Ovo-SLO-1A [4] (no change from basal); about -72 mV on Bma-SLO-1F [5] (all current voltage plots, with and without 1 µM emodepside). Besides, the slope conductance on Ovo-SLO-1A [4] (voltage steps -120 to +60 mV, n = 6 (basal 26 ± 2.9 µS)) stood at 61 ± 4.4 µS; on Bma-SLO-1F [5] (1 µM emodepside, voltage steps -120 to +60 mV, n = 6 (basal 2.4 ± 0.3 µS)), 12 ± 1.0 µS. For the same molecule, the “response of water injected oocytes” value in assay [1] (0.3 µM emodepside, +20 mV) is on record as “no response”. Moreover, the “effect on current and conductance of water injected oocytes” value in assay [1] (1 µM emodepside, voltage steps) is “little or no agonist effects; also recorded: no detectable change”. Besides, the “current (Imax) response” value amounted to 2799 ± 100 nA on Bma-SLO-1F [2] (setting [9]) and 954 ± 355 nA at Bma-SLO-1F [2] (0.3 µM emodepside alone, n = 6). The Rmax of emodepside at Bma-SLO-1F [2] (setting [10]) came out at 2679 ± 318 nA; on Bma-SLO-1F [2] (setting [13]) it was 4493 ± 433 nA; at Ovo-SLO-1A [3] (setting [10]), 2454 ± 87 nA; at Ovo-SLO-1A [3] (setting [13]), 4928 ± 830 nA. Besides, the “maximum response (Rmax)” value at Bma-SLO-1F [2] (setting [11]) turned out to be 6446 ± 287 nA; on Ovo-SLO-1A [3] (setting [11]), 10762 ± 478 nA. Further, the Hillslope is recorded as 1.1 ± 0.1 at Bma-SLO-1F [2] (setting [12]) and 1.2 ± 0.1 at Ovo-SLO-1A [3] (setting [12]). For the same molecule, the current response at Ovo-SLO-1A [3] (setting [9]) is 6735 ± 272 nA; on Ovo-SLO-1A [3] (0.3 µM emodepside alone, n = 6), 4170 ± 355 nA. Also, on Ovo-SLO-1A [3] (Ovo-SLO-1A vs Bma-SLO-1F), the “sensitivity of Ovo-SLO-1A to emodepside relative to Bma-SLO-1F (EC50 ratio)” value stood at 3.5 times.
